# Measurements: ChEMBL document CHEMBL4130472, “Synthesis of naphthazarin derivatives and identification of novel thioredoxin reductase inhibitor as potential anticancer agent” (Eur J Med Chem, 2017)
# Tests used:
# [1] = system: HL-60; test: Cytotoxicity in human HL60 cells assessed as cell viability at 20 uM incubated for 48 hrs by MTT assay; format: functional; conditions: HL-60, 48 h, read-out: Activity
# [2] = system: HL-60; test: Cytotoxicity in human HL60 cells assessed as reduction in cell viability incubated for 48 hrs by MTT assay; format: functional, cell-based; conditions: HL-60, 48 h
# [3] = system: HL-60; test: Cytotoxicity in human HL60 cells assessed as reduction in cell viability incubated for 72 hrs by MTT assay; format: functional, cell-based; conditions: HL-60, 72 h
SMILES,viability at 20 µM [1],IC50 [2],IC50 [3]
O=C1C=C(N2CCCCC2)C(=O)c2c(O)ccc(O)c21,54.9%,,
CCCCNC1=CC(=O)c2c(O)ccc(O)c2C1=O,59.2%,,
CCCNC1=CC(=O)c2c(O)ccc(O)c2C1=O,59.4%,,
O=C1C=C(N2CCCC2)C(=O)c2c(O)ccc(O)c21,97.2%,,
O=C1C=CC(=O)c2c(O)ccc(O)c21 [NAPHTHAZALIN],0%,930 nM,800 nM
CCCCCCCCNC1=CC(=O)c2c(O)ccc(O)c2C1=O,61.1%,,
CC(C)CCNC1=CC(=O)c2c(O)ccc(O)c2C1=O,54.3%,,
O=C1C=CC(=O)c2c(Cl)ccc(O)c21,23.1%,,
